{"source": "patent US20150292023A1", "about": "“Materials and Methods Related to NSAID Chemoprevention in Colorectal Cancer” (priority 2011, published 2015)", "key": {"[1]": {"test_system": "intestinal tumors of LS/HNPCC mice", "assay": "Tumor number and pathology following NSAID treatment", "settings": "for numbers of tumors when sacrificed: untreated 1.90±1.02, statistically equivalent"}, "[2]": {"test_system": "Msh2^flox/floxVpC^+/+ (LS/HNPCC) mice", "assay": "Kaplan-Meier survival of LS/HNPCC mice treated with NSAIDs in diet", "assay_type": "in vivo, mouse", "procedure": "(§1) Cohorts of equivalent gender Msh2^flox/floxVpC^+/+ mice were treated with NSAIDs including ASA that were mixed with powdered diet and administered ad libitum. VpC^+/+ (Msh2^++) mice were similarly examined to control for potentially confounding effects of continuous Cre expression in the intestine. Kaplan-Meier survival analyses were generated for each NSAID treatment (FIG. 2).\nA mouse model where exon 12 of Msh2 is flanked by LoxP recombination sites (Msh2^flox/flox) was generated. […] When considering the utility of this mouse model it is important to note that while modern day LS/HNPCC largely occurs in the colon, it was originally described as a gastric cancer.\nThe endpoint for the chemopreventive analysis of NSAIDs on mouse tumorigenesis is survival. Assessment of tumor kinetics, treatment regimes and pathological changes during tumor development constitute a correlative quantitative database."}, "LS/HNPCC patients": {"test_system": "LS/HNPCC patients", "settings": "cited from earlier work; for decrease in the rate of tumor formation / tumor incidence: long-term aspirin exposure (benefit after 5 yrs) vs placebo-treated cohort"}, "[3]": {"test_system": "MMR-deficient human colon tumor cells", "assay": "MSI suppression in MMR-defective cells", "assay_type": "cell-based", "settings": "for MSI suppression (in words): long-term exposure of MMR-defective cells", "description": "Inhibition of cyclooxygenase-1 (COX1) or COX2 activity that is involved in the production of inflammatory prostaglandins was, in the past, generally considered a mechanism for cancer chemoprevention by NSAIDs."}, "[4]": {"test_system": "microsatellite instability (MSI) in intestinal tissues of LS/HNPCC mice", "assay": "MSI analysis of tissues by small pool PCR (comparative MSI, Bethesda Criteria)", "assay_type": "in vivo, mouse", "settings": "for conversion of MSI to MSS (in words): intestinal compartment of treated mice; for comparative MSI-H proportion: intestinal tumor vs matched adjacent normal tissue, untreated 33%", "procedure": "A MSI analysis on tissues from the ASA and NO-ASA treatment groups by small pool PCR (1-10 genomic equivalents) was performed to determine the distribution of novel alleles between constitutional DNA (Ear, E) as well as normal (N) and tumor (T) intestinal tissues. When multiple samples of each tissue were analyzed, the resulting profiles comprised a representational distribution of the intrinsic allelic diversity. Ear tissues from these mice were consistently MSS, with the major allele always flanked by a relatively unvarying pattern of alleles that arise from PCR amplification-artifacts. Normal and intestinal tissues from ASA and NO-ASA treated mice show variation in major allele sizes and distributions.\nA comparative assessment of MSI status was made between intestinal tumors and their matched adjacent normal tissues by determining the absolute changes in microsatellite alterations between them. Comparative MSI provides a quantitative measure of the relative differences in instability between adjacent developmentally related normal and tumor tissues. The Bethesda Criteria for diagnostic microsatellite instability was used: MSS, no changes in microsatellite marker status; high microsatellite instability (MSI-H; ≧2 of 5 markers different)."}, "SMC1a mRNA": {"test_system": "SMC1a mRNA", "settings": "intestinal tissue", "procedure": "(§2) Groups of 12 mice were continuously treated (6 VpC^+/+ wild type and 6 Msh2^flox/floxVpC^+/+ LS/HNPCC mice) with each of the eight NSAIDs and the intestines were harvested after two months exposure. A 0.5 cm section of intestine 2.5 cm proximal of the cecum was harvested from each individually treated mouse. High quality mRNA and miRNA was prepared for expression array analysis. To reduce the possibility of day-to-day variation the hybridization of all samples was performed simultaneously as well as sequential expression analysis. Transcriptome expression data from both the mRNA and miRNA chips was analyzed.\n(§3) Identifying functional and regulatory connectivity among the differentially regulated miRs and mRNAs was analyzed to begin to determine biological pathways and networks responsible for NSAID-mediated tumor chemoprevention,. A combination of tools were used to deconvolute network interactions, including the ToppGene, ToppCluster, and ToppMir tools."}, "miR-135a": {"test_system": "miR-135a", "settings": "intestinal tissue", "procedure": "as §2, §3"}, "miR-9": {"test_system": "miR-9", "settings": "intestinal tissue", "procedure": "as §2, §3"}, "VpC^+/+ (wild type) mice": {"test_system": "VpC^+/+ (wild type) mice", "procedure": "as §1"}}, "note": "Read-outs that look alike come from different tables or passages of the source.", "data": [{"molecule": "CC(=O)Oc1ccccc1C(=O)O", "note": "[ASA, Acetylsalicylic acid]", "values": [{"measurement": "numbers of tumors when sacrificed", "setting": "[1]", "value": "1.68±0.72"}, {"measurement": "mean survival", "setting": "[2]; 400 mg/kg ASA in diet, untreated median 333 days, p<0.001", "value": 393, "unit": "days"}, {"measurement": "increase in lifespan", "setting": "[2]; 400 mg/kg ASA vs untreated", "value": 18, "unit": "%"}, {"measurement": "effect on survival (in words)", "setting": "[2]; LS/HNPCC mice vs untreated", "value": "suppressed tumorigenesis and increased survival"}, {"measurement": "Hazard Ratio (HR)", "setting": "LS/HNPCC patients; 600 mg aspirin daily vs placebo, tumors by yearly colonoscopy, p=0.02", "value": "0.61(0.1 9, 0.86)"}, {"measurement": "decrease in the rate of tumor formation / tumor incidence", "setting": "LS/HNPCC patients", "value": "≥ 2", "unit": "fold"}, {"measurement": "decrease in the rate of tumor formation / tumor incidence", "setting": "LS/HNPCC patients; listed as aspirin", "value": "at least 2 fold"}, {"measurement": "MSI suppression (in words)", "setting": "[3]", "value": "suppressed MSI"}, {"measurement": "conversion of MSI to MSS (in words)", "setting": "[4]", "value": "at least partially converted MSI to MSS"}, {"measurement": "comparative MSI-H proportion", "setting": "[4]", "value": 22, "unit": "%"}]}, {"molecule": "COc1ccc2cc([C@H](C)C(=O)O)ccc2c1", "note": "[Naproxen, naproxen]", "values": [{"measurement": "numbers of tumors when sacrificed", "setting": "[1]", "value": "1.58±0.67"}, {"measurement": "SMC1a mRNA expression (in words)", "setting": "SMC1a mRNA", "value": "enhanced"}, {"measurement": "miR-135a expression (in words)", "setting": "miR-135a", "value": "down-regulated"}, {"measurement": "miR-9 expression (in words)", "setting": "miR-9", "value": "down-regulated"}, {"measurement": "mean survival", "setting": "[2]; 166 mg/kg naproxen in diet", "value": 545, "unit": "days"}, {"measurement": "mean survival", "setting": "[2]; 331 mg/kg naproxen in diet", "value": 569, "unit": "days"}, {"measurement": "effect on survival (in words)", "setting": "[2]; LS/HNPCC mice vs untreated", "value": "nearly double the life span of untreated animals"}, {"measurement": "increase in life span (FIG. 2 grouping)", "setting": "[2]; representative survival data, vs untreated LS/HNPCC mice", "value": "~100", "unit": "%"}]}, {"molecule": "CC1=C(CC(=O)O)c2cc(F)ccc2/C1=C\\c1ccc(S(C)(=O)=O)cc1", "note": "[Sulindac Sulfone, sulindac sulfone]", "values": [{"measurement": "effect on survival (in words)", "setting": "[2]; LS/HNPCC mice vs untreated", "value": "No Effect"}]}, {"molecule": "CC1=C(CC(=O)O)c2cc(F)ccc2/C1=C\\c1ccc([S+](C)[O-])cc1", "note": "(centres unmarked) [Sulindac, sulindac]", "values": [{"measurement": "number of cecal cancers (in words)", "setting": "[1]", "value": "increases the number of cecal cancers"}, {"measurement": "effect on survival (in words)", "setting": "[2]; LS/HNPCC mice vs untreated", "value": "increased survival similar to ASA"}, {"measurement": "MSI suppression (in words)", "setting": "[3]", "value": "suppressed MSI"}, {"measurement": "tumor induction in wild type controls (in words)", "setting": "VpC^+/+ (wild type) mice; mouse, in vivo", "value": "induces tumors in the wild type controls"}, {"measurement": "survival of wild type mice (in words)", "setting": "VpC^+/+ (wild type) mice; wild type controls, FIG. 2B", "value": "significant reduce the survival of the wild type mice"}]}, {"molecule": "NO-sulindac sulphone", "values": [{"measurement": "effect on survival (in words)", "setting": "[2]; LS/HNPCC mice vs untreated", "value": "No Effect"}]}, {"molecule": "nitric oxide-donating acetylsalicylic acid [NO-ASA]", "values": [{"measurement": "numbers of tumors when sacrificed", "setting": "[1]", "value": "1.78±1.25"}, {"measurement": "mean survival", "setting": "[2]; 72 mg/kg NO-ASA in diet", "value": 403, "unit": "days"}, {"measurement": "effect on survival (in words)", "setting": "[2]; LS/HNPCC mice vs untreated", "value": "suppressed tumorigenesis and increased survival"}, {"measurement": "dose suppressing MSI, fold lower than ASA", "setting": "[3]; relative to ASA", "value": "300-3000 fold"}, {"measurement": "conversion of MSI to MSS (in words)", "setting": "[4]", "value": "at least partially converted MSI to MSS"}, {"measurement": "comparative MSI-H proportion", "setting": "[4]", "value": 20, "unit": "%"}]}, {"molecule": "nitric oxide-donating sulindac [NO-Sulindac]", "values": [{"measurement": "effect on survival (in words)", "setting": "[2]; mouse, in vivo", "value": "increased survival similar to ASA"}]}]}
